Laboratory results reported in patent publication US20120196899A1, “METHODS AND PRODUCTS FOR TREATING INFLAMMATION” (Rock Creek Pharmaceuticals, Inc., priority 2010, published 2012).
Where “and” joins values, the source holds several entries; their conditions need not be identical. Equal values may be shown once. Entries after “also recorded” stand apart in the source; their conditions may differ.

Assays:
[1] = Body weights, weight gain and food consumption over 14 days after single i.v. dose; format: in vivo, Sprague-Dawley rats; details: for Mean food consumption/day / Mean weigth increase by day 14 / day 13 B.W. / day 14 B.W. / B.W. day 1 / B.W. day 2 / B.W. day 3 / B.W. day 4 / B.W. day 5 / B.W. day 6 / B.W. day 7 / B.W. day 8 / B.W. day 9 / B.W. day 10 / B.W. day 11 / B.W. day 12: nicotine 0.75 mg/kg single i.v.; for day 13 B.W. / day 14 B.W. / B.W. day 1 / B.W. day 2 / B.W. day 3 / B.W. day 4 / B.W. day 5 / B.W. day 6 / B.W. day 7 / B.W. day 8 / B.W. day 9 / B.W. day 10 / B.W. day 11 / B.W. day 12 / Average Daily Food Consumption per Rat: tartrate; for B.W. day 1 / B.W. day 2 / B.W. day 3 / B.W. day 4 / B.W. day 5 / B.W. day 6 / B.W. day 7 / B.W. day 8 / B.W. day 9 / B.W. day 10 / B.W. day 11 / B.W. day 12: individual animals; for Average Daily Food Consumption per Rat: nicotine 0.75 mg/kg, per cage (cage 1, 2)
Experimental: Body weight and food consumption was measured daily for 14 days. On day 15, urine was collected on all surviving animals. The animals were euthanized and bled via cardiac puncture, and blood was collected for analysis. Tissues were collected, weighed, evaluated for gross abnormalities, and stored in 10% neutral-buffered formalin.
All animals were observed daily.

[2] = Urinalysis, day 15; format: in vivo, Sprague-Dawley rats; details: Dose is 0.75 mg/kg nicotine
From the text: On day 15, urine was collected on all surviving animals for urinalysis. The animals were euthanized and bled via cardiac puncture. Blood was collected for hematology, clinical chemistry, and coagulation analysis. Tissues were collected, weighed, and stored in 10% neutral-buffered formalin for possible future analysis.
There were no notable differences between the active treatment groups and controls and the observations are all consistent with those expected for this species.

[3] = target: nAChR α3/β4 (Homo sapiens, UniProt P30926+P32297)
Chain of nAChR α3/β4 (P32297 32-505): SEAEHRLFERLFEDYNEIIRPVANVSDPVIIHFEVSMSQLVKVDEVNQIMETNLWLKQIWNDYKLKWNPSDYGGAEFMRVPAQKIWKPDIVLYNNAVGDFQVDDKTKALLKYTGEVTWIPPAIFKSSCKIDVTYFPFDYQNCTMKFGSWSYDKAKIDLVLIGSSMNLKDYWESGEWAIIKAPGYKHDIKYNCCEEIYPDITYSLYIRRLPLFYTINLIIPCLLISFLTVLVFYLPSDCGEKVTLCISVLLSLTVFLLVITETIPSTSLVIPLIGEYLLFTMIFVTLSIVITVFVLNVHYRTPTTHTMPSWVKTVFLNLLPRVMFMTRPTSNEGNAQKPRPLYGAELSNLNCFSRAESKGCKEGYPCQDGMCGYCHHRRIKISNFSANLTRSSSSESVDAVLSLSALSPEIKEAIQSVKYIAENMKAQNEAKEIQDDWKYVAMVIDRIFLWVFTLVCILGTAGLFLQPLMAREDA
Chain of nAChR α3/β4 (P30926 22-498): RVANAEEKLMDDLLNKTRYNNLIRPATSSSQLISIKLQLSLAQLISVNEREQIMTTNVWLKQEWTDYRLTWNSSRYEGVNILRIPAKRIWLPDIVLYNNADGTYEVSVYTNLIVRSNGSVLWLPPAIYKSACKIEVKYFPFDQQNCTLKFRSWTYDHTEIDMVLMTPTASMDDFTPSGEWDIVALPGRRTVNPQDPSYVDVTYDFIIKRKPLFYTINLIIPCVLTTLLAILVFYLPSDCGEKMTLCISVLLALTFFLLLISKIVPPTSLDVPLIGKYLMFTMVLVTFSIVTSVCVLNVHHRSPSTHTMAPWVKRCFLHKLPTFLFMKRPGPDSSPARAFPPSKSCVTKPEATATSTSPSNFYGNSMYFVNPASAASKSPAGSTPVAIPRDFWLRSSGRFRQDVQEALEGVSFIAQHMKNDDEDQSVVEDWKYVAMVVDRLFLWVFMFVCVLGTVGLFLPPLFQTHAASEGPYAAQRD
Experimental: HEK293 or CHO cells were transiently or stably transfected with the appropriate human ion channel cDNAs. Stable transfectants were selected by coexpression with the antibiotic-resistance gene(s) incorporated into the expression plasmid(s). Selection pressure was maintained by including selection antibiotics in the culture medium. HEK293 cells were cultured in Dulbecco's Modified Eagle Medium/Nutrient Mixture F-12 (D-MEM/F-12) supplemented with 10% fetal bovine serum, 100 U/mL penicillin G sodium, 100 g/mL streptomycin sulfate and appropriate selection antibiotics. CHO cells were cultured in Ham's F-12 supplemented with 10% fetal bovine serum, 100 U/mL penicillin G sodium, 100 g/mL streptomycin sulfate and appropriate selection antibiotics.
For FLIPR TETRA™ assay, cells were plated in 384-well black wall, flat clear bottom microtiter plates (Type: BD Biocoat Poly-D-Lysine Multiwell Cell Culture Plate) at 20,000 to 30,000 cells per well (384-well plate). Cells were incubated at 37° C. overnight or until the cells reached a sufficient density in the wells (near confluent monolayer) to use in fluorescence assays. For α4β2 assay, cells were incubated at 27° C. for at least 7 hours before use.
Experiments were performed with either the FLIPR calcium sensitive dye kit (Fluo-8, ABDbioquest, for nAChR α3/β4 and nAChR α7) or FLIPR membrane potential kit (Molecular Devices, for nAChR α4/β2) according to the manufacturer's instructions. Briefly, cells were incubated with 201 dye for 30 min at 37° C. After dye loading period, for the agonist assay, 5 μl of the test, vehicle, or control articles at concentration of 5 times of final concentration were applied to the cells without stimulation. For the positive allosteric modulation (PAM) and antagonist assay, after test article application, the cells were stimulated with either low dose (for PAM) or high dose (for antagonist) of Ach.
The signal elicited in the presence of the positive control agonist and allosteric modulator (10 μM Ach+1 μM epibatidine) was set to 100% and the signal from the agonist control (10 μM Ach) was set to 0%.

[4] = target: T1, nAChR α7 (Homo sapiens, UniProt P36544); assay: nAChR α7 channel agonist assay (FLIPR, with PNU-120596); format: cell-based; details: with 10 μM PNU-120596; maximal stimulation not achieved
T1 construct: host or cells: CHO cells
T1 sequence (P36544 23-502): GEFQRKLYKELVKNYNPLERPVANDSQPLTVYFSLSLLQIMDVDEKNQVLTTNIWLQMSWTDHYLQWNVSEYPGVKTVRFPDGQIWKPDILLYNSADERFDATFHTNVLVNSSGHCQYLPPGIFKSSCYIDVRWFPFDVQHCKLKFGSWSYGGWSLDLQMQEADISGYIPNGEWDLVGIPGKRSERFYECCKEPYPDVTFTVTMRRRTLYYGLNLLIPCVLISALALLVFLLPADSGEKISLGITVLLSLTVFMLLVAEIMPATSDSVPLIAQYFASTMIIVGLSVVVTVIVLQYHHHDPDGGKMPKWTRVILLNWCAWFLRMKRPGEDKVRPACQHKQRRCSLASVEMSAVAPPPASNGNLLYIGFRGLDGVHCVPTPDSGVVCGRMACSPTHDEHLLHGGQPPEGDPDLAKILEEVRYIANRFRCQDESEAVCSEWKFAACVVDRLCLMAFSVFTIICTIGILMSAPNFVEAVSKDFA
Experimental: Therefore, the assay of agonist activity for either Ach or for the test articles was conducted in the presence of the positive allosteric modulator.

[5] = system: TNFα-induced NFκB activity; assay: NFκB luciferase assay (inhibition of TNFα-induced NFκB activity) in HEK293 reporter cells; format: cell-based, Human; details: HEK293 reporter cells challenged with TNFα for three hours
Experimental: The smokeless tobacco used in these experiments was plain long-leaf Copenhagen tobacco purchased from a local vendor. Crude extract was extracted with methanol and water and clarified by centrifugation and filtration. The alkaloid extract was prepared from sodium hydroxide and methanol extraction, organic phase separation and purification. All treatment samples were prepared as a function of weight (μg/ml), and all samples were diluted in DMSO.
Human […] kidney cells (HEK293) transfected with an NFκB luciferase reporter were challenged with TNFα for three hours, then samples were applied to the challenged cells.

[6] = Physical signs after single i.v. dose (Example 3); format: in vivo, Sprague-Dawley rats; details: nicotine 0.4 mg/kg single i.v.; all males and two females
Experimental: Four aliquots of each dose level formulation were collected and stored at −80° C. The test compound, corresponding dose level, number of animals, and sample collection times for Phase I of the study are shown in Table 3. The test compound, corresponding dose level, number of animals, and sample collection times for Phase II of the study are shown in Table 4. The physical signs of each animal were monitored following administration of the test compound.

[7] = target: T2, nAChR α4/β2 (Homo sapiens, UniProt P17787+P43681); format: cell-based; details: 100 μM Ach + 0.3 μM epibatidine; not concentration-dependent, IC50 not determinable
T2 construct: host or cells: HEK293 cells, transient transfection
T2 sequence (P17787 26-502): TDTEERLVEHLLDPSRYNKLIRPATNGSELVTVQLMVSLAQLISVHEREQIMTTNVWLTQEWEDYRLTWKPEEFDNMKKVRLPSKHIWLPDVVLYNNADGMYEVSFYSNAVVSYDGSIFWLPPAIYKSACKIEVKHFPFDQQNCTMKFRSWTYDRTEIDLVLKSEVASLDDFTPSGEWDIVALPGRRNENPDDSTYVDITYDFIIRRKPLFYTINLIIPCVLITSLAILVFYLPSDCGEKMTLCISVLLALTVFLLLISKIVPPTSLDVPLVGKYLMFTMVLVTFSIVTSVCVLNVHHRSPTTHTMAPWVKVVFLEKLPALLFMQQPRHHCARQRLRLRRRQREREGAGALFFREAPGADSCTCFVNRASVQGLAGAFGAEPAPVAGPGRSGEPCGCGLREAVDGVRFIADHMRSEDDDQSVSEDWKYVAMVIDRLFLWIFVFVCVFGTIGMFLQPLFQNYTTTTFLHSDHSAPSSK
T2 sequence (P43681 29-627): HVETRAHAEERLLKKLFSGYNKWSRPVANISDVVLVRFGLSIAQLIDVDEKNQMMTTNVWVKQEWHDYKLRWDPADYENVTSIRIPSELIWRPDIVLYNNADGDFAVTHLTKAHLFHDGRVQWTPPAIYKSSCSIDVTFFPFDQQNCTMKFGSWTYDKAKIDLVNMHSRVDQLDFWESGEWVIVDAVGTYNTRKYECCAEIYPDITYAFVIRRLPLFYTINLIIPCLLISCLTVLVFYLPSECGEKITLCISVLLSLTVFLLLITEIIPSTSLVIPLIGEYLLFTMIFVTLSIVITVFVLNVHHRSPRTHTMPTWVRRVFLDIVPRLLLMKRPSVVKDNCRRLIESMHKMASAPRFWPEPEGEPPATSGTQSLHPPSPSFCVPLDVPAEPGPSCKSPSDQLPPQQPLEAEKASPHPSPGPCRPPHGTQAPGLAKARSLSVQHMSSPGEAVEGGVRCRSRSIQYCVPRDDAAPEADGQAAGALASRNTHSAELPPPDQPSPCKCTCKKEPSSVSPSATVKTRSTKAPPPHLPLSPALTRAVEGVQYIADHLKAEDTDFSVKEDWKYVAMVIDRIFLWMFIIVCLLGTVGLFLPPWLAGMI
Experimental: The following three (3) channels were evaluated: • 1. nAChR α3/β4 (encoded by the human CHRNA3 and CHRNB4 gene and stably expressed in CHO cells); • 2. nAChR α4/β2 (CHRNA4 and CHRNB2 gene and transiently expressed in HEK293 cells); and • 3. nAChR α7 (encoded by the human nicotinic α7 gene coexpressed in CHO cells with the chaperone RIC-3 encoded by the human RIC3 gene).
The ability of each test article to act as an agonist, a positive allosteric modulator or antagonist of three nAChR receptor channels was evaluated in the presence of 0.1 atropine. Both test articles were evaluated for responses on each nAChR channel at eight (8) concentrations: 0.3, 1, 3, 10, 30, 100, 300, and 1000 μM (n=4 for each concentration).
HEK293 or CHO cells were transiently or stably transfected with the appropriate human ion channel cDNAs. Stable transfectants were selected by coexpression with the antibiotic-resistance gene(s) incorporated into the expression plasmid(s). […]
For FLIPR TETRA™ assay, cells were plated in 384-well black wall, flat clear bottom microtiter plates (Type: BD Biocoat Poly-D-Lysine Multiwell Cell Culture Plate) at 20,000 to 30,000 cells per well (384-well plate). Cells were incubated at 37° C. overnight or until the cells reached a sufficient density in the wells (near confluent monolayer) to use in fluorescence assays. […]

[8] = individual animals E1-E10 (M and F)
[9] = individual animals E1-E10 (M and F), tartrate, 0.75 mg/kg

CN1CCCC1c1cccnc1.O=C(O)C(O)C(O)C(=O)O (single isomer, unassigned; (-)) [Nicotine, (−) Nicotine hydrogen tartrate, reference compound]
Mean food consumption/day ([1]; Female): 20.6 g
Mean weigth increase by day 14 ([1]; Female): 40.8 g
Mean food consumption/day ([1]; Male): 26.4 g
Mean weigth increase by day 14 ([1]; Male): 98.5 g
day 13 B.W. ([1]; individual female rats): 232.6 g and 251.8 g and 227.3 g
day 14 B.W. ([1]; individual female rats): 230.4 g and 249 g and 229 g
day 13 B.W. ([1]; individual male rats): 330 g and 312.3 g and 292.4 g and 299.4 g
day 14 B.W. ([1]; individual male rats): 339.2 g and 316.1 g and 297.6 g and 305 g
B.W. day 1 ([1]; day 1, female rats): 191.6 g and 206.1 g and 192.8 g
B.W. day 1 ([1]; day 1, male rats): 227 g and 228 g and 223 g and 219 g
B.W. day 2 ([1]; day 2, female rats): 190.5 g and 213.4 g and 195.7 g
B.W. day 2 ([1]; day 2, male rats): 234.9 g and 239.1 g and 229.5 g and 229.1 g
B.W. day 3 ([1]; day 3, female rats): 198 g and 217.1 g and 199.1 g
B.W. day 3 ([1]; day 3, male rats): 243 g and 245.1 g and 241.1 g and 238.4 g
B.W. day 4 ([1]; day 4, female rats): 207.8 g and 223.8 g and 205.6 g
B.W. day 4 ([1]; day 4, male rats): 260.5 g and 263.4 g and 257.6 g and 252.9 g
B.W. day 5 ([1]; day 5, female rats): 212.3 g and 226.3 g and 206.4 g
B.W. day 5 ([1]; day 5, male rats): 272.1 g and 269.1 g and 260.7 g and 258.7 g
B.W. day 6 ([1]; day 6, female rats): 207 g and 228.9 g and 205.5 g
B.W. day 6 ([1]; day 6, male rats): 259 g and 275.4 g and 270 g and 262.8 g
B.W. day 7 ([1]; day 7, female rats): 213 g and 240.1 g and 218.3 g
B.W. day 7 ([1]; day 7, male rats): 279.9 g and 295.8 g and 288 g and 277.8 g
B.W. day 8 ([1]; day 8, female rats): 218 g and 237.4 g and 217.4 g
B.W. day 8 ([1]; day 8, male rats): 284 g and 293.7 g and 285.6 g and 278 g
B.W. day 9 ([1]; day 9, female rats): 219.1 g and 236.4 g and 213.2 g
B.W. day 9 ([1]; day 9, male rats): 274.9 g and 303.5 g and 285.6 g and 274.6 g
B.W. day 10 ([1]; day 10, female rats): 221.8 g and 240.1 g and 220.5 g
B.W. day 10 ([1]; day 10, male rats): 286.1 g and 314.2 g and 301 g and 283.4 g
B.W. day 11 ([1]; day 11, female rats): 222.8 g and 244.5 g and 226 g
B.W. day 11 ([1]; day 11, male rats): 292.2 g and 317.7 g and 300.1 g and 291.5 g
B.W. day 12 ([1]; day 12, female rats): 232.1 g and 248.9 g and 227.7 g
B.W. day 12 ([1]; day 12, male rats): 290.7 g and 329.5 g and 303 g and 287.3 g
Average Daily Food Consumption per Rat ([1]; female, day 1): 23.7 grams and 14.8 grams
Average Daily Food Consumption per Rat ([1]; female, day 2): 18.4 grams and 24.9 grams
Average Daily Food Consumption per Rat ([1]; female, day 3): 22.2 grams and 22.3 grams
Average Daily Food Consumption per Rat ([1]; female, day 4): 19.4 grams and 15.8 grams
Average Daily Food Consumption per Rat ([1]; female, day 5): 18.7 grams and 16.2 grams
Average Daily Food Consumption per Rat ([1]; female, day 6): 20.0 grams and 17.2 grams
Average Daily Food Consumption per Rat ([1]; female, day 7): 19.4 grams and 21.7 grams
Average Daily Food Consumption per Rat ([1]; female, day 8): 20.1 grams and 20.6 grams
Average Daily Food Consumption per Rat ([1]; female, day 9): 24.4 grams and 21.5 grams
Average Daily Food Consumption per Rat ([1]; female, day 10): 22.6 grams and 20.4 grams
Average Daily Food Consumption per Rat ([1]; female, day 11): 20.4 grams and 20.3 grams
Average Daily Food Consumption per Rat ([1]; female, day 12): 22.5 grams and 21.7 grams
Average Daily Food Consumption per Rat ([1]; female, day 13): 23.7 grams and 21.2 grams
Average Daily Food Consumption per Rat ([1]; female, day 14): 24.4 grams and 19.6 grams
Average Daily Food Consumption per Rat ([1]; males, day 1): 20.8 grams and 19.3 grams
Average Daily Food Consumption per Rat ([1]; males, day 2): 26.2 grams and 23.5 grams
Average Daily Food Consumption per Rat ([1]; males, day 3): 26.6 grams and 26.2 grams
Average Daily Food Consumption per Rat ([1]; males, day 4): 26.2 grams and 23.7 grams
Average Daily Food Consumption per Rat ([1]; males, day 5): 25.1 grams and 21.9 grams
Average Daily Food Consumption per Rat ([1]; males, day 6): 23.8 grams and 25.9 grams
Average Daily Food Consumption per Rat ([1]; males, day 7): 26.5 grams and 27.9 grams
Average Daily Food Consumption per Rat ([1]; males, day 8): 24.0 grams and 28.2 grams
Average Daily Food Consumption per Rat ([1]; males, day 9): 27.3 grams and 26.1 grams
Average Daily Food Consumption per Rat ([1]; males, day 10): 29.6 grams and 30.9 grams
Average Daily Food Consumption per Rat ([1]; males, day 11): 30.1 grams and 29.1 grams
Average Daily Food Consumption per Rat ([1]; males, day 12): 26.5 grams and 23.4 grams
Average Daily Food Consumption per Rat ([1]; males, day 13): 31.9 grams and 28.4 grams
Average Daily Food Consumption per Rat ([1]; males, day 14): 32.7 grams and 26.4 grams
Urinalysis VOLUME ([2]; animal E6 (F)): 10 UL
Urinalysis CLARITY [2, 8]: HAZY
Urinalysis COLOR [2, 8]: YELLOW
Urinalysis GLUCOSE [2, 8]: NEGATIVE
Urinalysis KETONES [2, 8]: NEGATIVE
Urinalysis UROBILINOGEN [2, 8]: NORMAL
Urinalysis VOLUME [2, 8]: <0.5 mL
Urinalysis PROTEIN [2, 9]: NEGATIVE; also recorded: TRACE
Urinalysis SPEC GRAVITY [2, 9]: 1.054 and 1.058 and 1.046 and 1.047 and 1.052
Urinalysis pH [2, 9]: 6 and 6.5 (2×) and 7 and 7.5
potentiation [3]: Neither nicotine nor anatabine potentiated the activity
agonist activity [4]: showed agonist activity
TNFα-induced NFκB-mediated transcription of luciferase [5]: reduce TNFα-induced NFκB-mediated transcription
physical signs [6]: experienced tremors immediately post dose
inhibition of receptor activity [7]: inhibited receptor activity
